# Results published in paper PMC7932555, “A diffusible signal factor of the intestine dictates Salmonella invasion through its direct control of the virulence activator HilD” (PLoS Pathogens, 2021).
# Positions count from the first letter of the chain named.
# Assays:
# [1] = system: Salmonella invasion of HEp-2 cells; assay: Invasion of HEp-2 cells by gentamicin protection assay; type: cell-based
# Description: Invasion was quantified by gentamicin protection assay. HEp-2 cells were seeded into 24-well cell culture plates (~10^5/well) and allowed to attach overnight at 37° C with 5% CO2). Salmonella strains were grown overnight without aeration in LB buffered with 100 mM HEPES, pH 8.0, with antibiotics and fatty acids or control solvent. Overnight cultures were washed with sterile PBS. Bacteria were added to the HEp-2 cell monolayer (MOI 1:10), centrifuged briefly (10 minutes at 200 x g) and incubated for 1 hour at 37°C. Wells were washed three times with sterile PBS followed by addition of media with 200 μg/mL gentamicin and incubated for 1 hour. Cells were then washed three times with sterile PBS and lysed by 0.1% Triton X-100. Intracellular bacteria were enumerated by spreading lysates onto LB agar plates with appropriate selection.
# HilD^Q290A = target: T1, HilD^Q290A (Salmonella typhimurium, UniProt P0CL08, Q290A); assay: ELISA binding of fatty acid to HilD Q290A
# T1 construct: made in house; host or cells: E. coli BL21 (DE3)
# T1 sequence (P0CL08 1-309 Q290A): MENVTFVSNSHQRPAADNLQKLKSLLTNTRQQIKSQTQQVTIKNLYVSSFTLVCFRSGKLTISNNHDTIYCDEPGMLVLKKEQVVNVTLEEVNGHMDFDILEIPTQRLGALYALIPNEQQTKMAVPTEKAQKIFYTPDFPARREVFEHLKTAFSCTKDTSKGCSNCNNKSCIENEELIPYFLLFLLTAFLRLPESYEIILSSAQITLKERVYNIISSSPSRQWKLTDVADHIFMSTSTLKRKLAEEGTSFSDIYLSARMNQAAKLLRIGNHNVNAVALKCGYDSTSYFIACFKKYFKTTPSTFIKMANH
# Description: (§1) hilD or its mutated sequences were amplified and cloned into pET15b(+) under an N-terminal 6xHis tag. The constructs were transformed into E. coli BL21 (DE3) for expression. Transformants were induced with 5 mM IPTG for 4 hours. Cultures were centrifuged, lysed and treated with TALON beads as described above. Bound protein was eluted by applying 1 ml elution buffer to the columns. Elution was confirmed by SDS-PAGE. Following confirmation, eluted samples were dialyzed overnight in dialysis buffer (50 mM sodium phosphate, 300 mM NaCl, 10% glycerol). Protein concentration and quality were assessed by Bradford estimation and SDS-PAGE.
# (§2) 96-well polystyrene plates were coated with 10 μM fatty acid in coating buffer (0.05 M sodium carbonate-bicarbonate, pH 9.3) and incubated overnight at 4°C. Wells were washed three times with PBS, followed by addition of blocking buffer (1% Ficoll 400 in PBS). After blocking, wells were washed three times with PBS, and different concentrations of proteins in blocking buffer were added and incubated at room temperature for 2 hours. […] After color development, reaction was stopped with 1N sulfuric acid and read spectrophotometrically at 490 nm. Binding was analyzed in GraphPad Prism.
# (§3) All experiments were repeated twice and data of representative experiment have been shown. Kd was calculated by using Total One-Site binding in GraphPad Prism. […]
# HilD^K293A = target: T2, HilD^K293A (Salmonella typhimurium, UniProt P0CL08, K293A); assay: ELISA binding of fatty acid to HilD K293A
# T2 construct: made in house; host or cells: E. coli BL21 (DE3)
# T2 sequence (P0CL08 1-309 K293A): T1 sequence (P0CL08 1-309 Q290A) with A290Q, K293A
# Description: as §1, §2, §3
# wild type HilD = target: T3, wild type HilD (Salmonella typhimurium, UniProt P0CL08); assay: EMSA of hilA promoter DNA with wild type HilD; type: biochemical; settings: wild type HilD 150 nM; 10 nM hilA promoter DNA; increasing concentrations or 30 μM fatty acid
# T3 construct: made in house; host or cells: E. coli BL21 (DE3)
# T3 sequence (P0CL08 1-309): T1 sequence (P0CL08 1-309 Q290A) with A290Q
# Description: These were performed as previously described. Briefly, 10 nM hilA promoter DNA (-286 to +31) was mixed with 150 nM HilD in a binding buffer (100 mM Tris pH 7.5, 10 mM EDTA, 1M KCl, 1 mM DTT, 50% v/v glycerol). Fatty acids or control solvents were added at various concentrations. Binding reaction was performed at room temperature for 1 hour. Dye solution was added to final concentration of 1X and samples were separated on 10% acrylamide gels. DNA was stained using SYBR Safe and visualized in BioRad GelDoc imaging system.
# [2] = Salmonella expressing HilD K293A grown overnight with 20 μM fatty acid
# [3] = Salmonella expressing HilD N44A grown overnight with 20 μM fatty acid
# [4] = Salmonella expressing wild type HilD grown overnight with 20 μM fatty acid
# [5] = plates pre-adsorbed with 10 μM fatty acid
Structure (SMILES),"inhibition of invasion of HEp-2 cells [1, 2]","inhibition of invasion of HEp-2 cells [1, 3]","inhibition of invasion of HEp-2 cells [1, 4] [fold]",Kd (HilD^Q290A; [5]) [µM],binding in ELISA (in words) (HilD^K293A),effect on HilD binding to hilA promoter DNA (wild type HilD),inhibition of invasion of HEp-2 cells ([1]; Salmonella expressing HilD Q290A grown overnight with 20 μM fatty acid),binding in ELISA (in words) (HilD^Q290A),Kd (HilD^K293A; [5]) [µM]
"CCCCCCCCCCCCC/C=C\C(=O)O [c2-HDA, cis-2-hexadecenoic acid]",invaded HEp-2 cells despite the presence of 20 μM c2-HDA,unaffected,8,9.7,negligible binding,progressively impaired interaction of wild type HilD with the DNA target,–,–,–
"CCCCCCCCCCCCC/C=C/C(=O)O [t2-HDA, trans-2-hexadecenoic acid]",2 fold,unaffected,2,–,–,efficiently reduced the DNA binding capacity,had no effect,failed to bind,16.7
